Experiments:
[1] = biological target: telomerase (Homo sapiens, UniProt O14746); assay: Modified telomeric repeat amplification protocol (TRAP) assay, cell-free; type: biochemical; conditions: extracts from A2780 cells, tested as salts, read-out: telIC50 (Telomerase Inhibitory Activity)
Description: The ability of compounds to inhibit telomerase in a cell-free assay was assessed with a modified TRAP assay using extracts from exponentially growing A2780 human ovarian carcinoma cells. The TRAP assay was performed in 2 steps: (a) telomerase-mediated extension of the forward primer (TS: 5′-AATCCGTCGAGCAGAGTT (SEQ ID NO:3), Oswel Ltd., Southampton, UK) contained in a 40 µL reaction mix comprising TRAP buffer (20 mM Tris-HCl (pH 8.3), 68 mM KCl, 1.5 mM MgCl2, 1 mM EGTA, 0.05% v/v Tween 20), 0.05 μg bovine serum albumin, 50 μM of each deoxynucleotide triphosphate, 0.1 μg TS primer, and 3 μCi of [α-^32P]dCTP (Amersham plc, UK). Protein (40 ng or 20 ng) was then incubated with the reaction mix+agent (acid addition and quaternary dimethiodide salts) at final concentrations of up to 50 μM for 20 min at 25° C. A lysis buffer (no protein) control, heat-inactivated protein control, and 50% protein (20 ng or 10 ng) control were included in each assay; and (b) while heating at 80° C. in a PCR block of a thermal cycler (Hybaid, UK) for 5 min to inactivate telomerase activity, 0.1 μg of reverse CX primer (3′-[…]-5′ (SEQ ID NO:4)) and 2 Units of Taq DNA polymerase (“red hot”, Advanced Biotechnologies) were added. A 3-step PCR was then performed: 94° C. for 30 s, 50° C. for 30 s, and 72° C. for 1 min for 31 cycles. Telomerase-extended PCR products in the presence or absence of compounds were then determined either by electrophoretic separation using 8% w/w acrylamide denaturing gels and analysis by phosphorimaging or autoradiography, or by harvesting on Whatman filters (25 mm glass microfibre) and analysis by liquid scintillation counting.

[2] = Growth inhibition, sulforhodamine B (SRB) assay, A2780; type: cell-based; conditions: human, A2780 ovarian carcinoma cells, A2780, 96 hr incubation, tested as salts, read-out: Cytotoxicity - IC50 A2780
Description: (§1) Growth inhibition was measured in three human ovarian carcinoma cell lines (A2780, CH1, and SKOV-3) and one human cervix carcinoma cell line (A431) using the sulforhodamine B (SRB) assay. Briefly, between 3000 and 6000 cells were seeded into the wells of 96-well microtiter plates and allowed to attach overnight. Compounds (acid addition and quaternary dimethiodide salts) were dissolved at 500 μM in water and immediately added to wells in quadruplicate at final concentrations of 0.05, 0.25, 1, 5 and 25 μM. Following an incubation period of 96 hr, remaining cells were fixed with ice-cold 10% w/v trichloroacetic acid (30 min) and stained with 0.4% SRB in 1% v/v acetic acid (15 min). Mean absorbance at 540 nm for each drug concentration was expressed as a percentage of the control untreated well absorbance, and IC50 values (concentration required to inhibit cell growth by 50%) were determined for each agent.

[3] = Growth inhibition, sulforhodamine B (SRB) assay, CH1; type: cell-based; conditions: human, CH1 ovarian carcinoma cells, CH1, 96 hr incubation, tested as salts, read-out: Cytotoxicity - IC50 CH1
Description: as §1

[4] = Growth inhibition, sulforhodamine B (SRB) assay, SKOV-3; type: cell-based; conditions: human, SKOV-3 ovarian carcinoma cells, SKOV-3, 96 hr incubation, tested as salts, read-out: Cytotoxicity - IC50 SKOV-3
Description: as §1

[5] = Growth inhibition, sulforhodamine B (SRB) assay, A431; type: cell-based; conditions: human, A431 cervix carcinoma cells, A431, 96 hr incubation, tested as salts, read-out: Cytotoxicity - IC50 A431
Description: as §1

telomerase, sequence (O14746 whole entry): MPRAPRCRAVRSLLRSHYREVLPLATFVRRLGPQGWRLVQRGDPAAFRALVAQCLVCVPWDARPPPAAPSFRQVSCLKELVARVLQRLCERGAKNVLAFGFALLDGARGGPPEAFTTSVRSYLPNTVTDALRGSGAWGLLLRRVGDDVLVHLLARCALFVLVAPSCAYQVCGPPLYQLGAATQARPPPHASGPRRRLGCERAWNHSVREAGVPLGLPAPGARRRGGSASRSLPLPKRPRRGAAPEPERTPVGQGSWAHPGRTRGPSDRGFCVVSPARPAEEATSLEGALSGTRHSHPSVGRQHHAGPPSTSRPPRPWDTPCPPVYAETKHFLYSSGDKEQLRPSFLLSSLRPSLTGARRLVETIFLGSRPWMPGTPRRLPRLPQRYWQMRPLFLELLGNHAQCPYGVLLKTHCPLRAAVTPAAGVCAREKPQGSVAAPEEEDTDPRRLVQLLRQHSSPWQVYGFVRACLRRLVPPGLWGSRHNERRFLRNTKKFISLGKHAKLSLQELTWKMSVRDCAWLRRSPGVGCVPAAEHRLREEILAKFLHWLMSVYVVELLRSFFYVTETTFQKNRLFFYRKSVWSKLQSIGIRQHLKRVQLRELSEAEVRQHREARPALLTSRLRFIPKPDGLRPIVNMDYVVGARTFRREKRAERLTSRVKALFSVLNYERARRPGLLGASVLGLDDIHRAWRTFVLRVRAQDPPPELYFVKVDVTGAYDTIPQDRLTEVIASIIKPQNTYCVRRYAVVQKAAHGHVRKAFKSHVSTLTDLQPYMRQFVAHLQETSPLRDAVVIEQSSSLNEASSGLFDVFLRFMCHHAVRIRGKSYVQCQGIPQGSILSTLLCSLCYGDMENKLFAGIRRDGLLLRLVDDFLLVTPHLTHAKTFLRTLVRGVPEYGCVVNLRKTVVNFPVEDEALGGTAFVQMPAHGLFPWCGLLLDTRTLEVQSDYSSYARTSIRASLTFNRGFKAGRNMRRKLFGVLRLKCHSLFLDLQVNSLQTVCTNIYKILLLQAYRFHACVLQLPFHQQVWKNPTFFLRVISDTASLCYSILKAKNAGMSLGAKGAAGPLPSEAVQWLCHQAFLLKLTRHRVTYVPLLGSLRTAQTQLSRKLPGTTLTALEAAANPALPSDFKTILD

With O=C(CCN1CCCC1)Nc1ccc2c(=O)c3ccc(NC(=O)CCN4CCCC4)cc3[nH]c2c1 [BR-ACO-4, 3,6-Bis[3-(pyrrolidino)propionamido]-9(10H)-acridone] the IC50 [1] was 8000 nM, the IC50 at 96 h [2] was > 25 µM and the IC50 at 96 h [3] was > 25 µM. The IC50 at 96 h [4] was > 25 µM.

Work on O=C(CCN1CCCCC1)Nc1ccc2c(=O)c3ccc(NC(=O)CCN4CCCCC4)cc3[nH]c2c1 [BR-ACO-5, 3,6-Bis[3-(piperidino)propionamido]-9(10H)-acridone] yielded an IC50 [1] of 5900 nM, an IC50 at 96 h [2] of 19 µM and an IC50 at 96 h [3] of 13 µM. It also gave an IC50 at 96 h [4] of 21 µM.

In the case of CN(C)CCC(=O)Nc1ccc2c(=O)c3ccc(NC(=O)CCN(C)C)cc3[nH]c2c1 [BR-ACO-6, 3,6-Bis[3-(dimethylamino)propionamido]-9(10H)-acridone], the IC50 [1] is reported as 4300 nM, the IC50 at 96 h [2] is reported as > 25 µM and the IC50 at 96 h [3] is reported as > 25 µM. For the same compound, the IC50 at 96 h [4] was > 25 µM.

With CCN(CC)CCC(=O)Nc1ccc2c(=O)c3ccc(NC(=O)CCN(CC)CC)cc3[nH]c2c1 [BR-ACO-7, 3,6-Bis[3-(diethylamino)propionamido]-9(10H)-acridone] the IC50 [1] was 5700 nM, the IC50 at 96 h [2] was > 25 µM and the IC50 at 96 h [3] was > 25 µM. The IC50 at 96 h [4] was > 25 µM.

For O=C(CCN1CCOCC1)Nc1ccc2c(O)c3ccc(NC(=O)CCN4CCOCC4)cc3nc2c1 [BR-ACO-8, 3,6-Bis[3-(morpholino)propionamido]-9(10H)-acridone], the IC50 [1] was 49000 nM, the IC50 at 96 h [2] was > 25 µM and the IC50 at 96 h [3] was > 25 µM. For the same compound, the IC50 at 96 h [4] was > 25 µM.

For O=C(CCN1CCCC1)Nc1ccc2nc3ccc(NC(=O)CCN4CCCC4)cc3c(O)c2c1 [BR-ACO-9, 2,7-Bis[3-(pyrrolidino)propionamido]-9(10H)-acridone], the IC50 [1] was 2800 nM, the IC50 at 96 h [2] was > 25 µM and the IC50 at 96 h [3] was > 25 µM. For the same compound, the IC50 at 96 h [4] was > 25 µM.

With O=C(CCN1CCCCC1)Nc1ccc2nc3ccc(NC(=O)CCN4CCCCC4)cc3c(O)c2c1 [BR-ACO-10, 2,7-Bis[3-(piperidino)propionamido]-9(10H)-acridone] the IC50 [1] was 5800 nM, the IC50 at 96 h [2] was > 25 µM and the IC50 at 96 h [3] was > 25 µM. For the same compound, the IC50 at 96 h [4] was > 25 µM.

CC1CCN(CCC(=O)Nc2ccc3c(=O)c4ccc(NC(=O)CCN5CCC(C)CC5)cc4[nH]c3c2)CC1 [BR-ACO-33, 3,6-Bis[3-(4-methylpiperidino)propionamido]-9(10H)-acridone] gave an IC50 [1] of 1900 nM, an IC50 at 96 h [2] of 3 µM and an IC50 at 96 h [3] of 3 µM. The IC50 at 96 h [4] was 5.6 µM.

For O=C(CCN1CCC(O)CC1)Nc1ccc2c(O)c3ccc(NC(=O)CCN4CCC(O)CC4)cc3nc2c1 [BR-ACO-34, 3,6-Bis[3-(4-hydroxypiperidino)propionamido]-9(10H)-acridone], the IC50 [1] was 1800 nM, the IC50 at 96 h [2] was > 25 µM and the IC50 at 96 h [3] was > 25 µM. For the same compound, the IC50 at 96 h [4] was > 25 µM.

CC1CCCCN1CCC(=O)Nc1ccc2c(=O)c3ccc(NC(=O)CCN4CCCCC4C)cc3[nH]c2c1 (stereo not drawn) [BR-ACO-36, 3,6-Bis[3-(2-methylpiperidino)propionamido]-9(10H)-acridone] showed an IC50 [1] of 3300 nM, an IC50 at 96 h [2] of 13 µM and an IC50 at 96 h [3] of 11.8 µM. It also gave an IC50 at 96 h [4] of 12 µM.

Work on CCC1CCCCN1CCC(=O)Nc1ccc2c(=O)c3ccc(NC(=O)CCN4CCCCC4CC)cc3[nH]c2c1 (stereo not drawn) [BR-ACO-37, 3,6-Bis[3-(2-ethylpiperidino)propionamido]-9(10H)-acridone] yielded an IC50 [1] of 1600 nM, an IC50 at 96 h [2] of 11.8 µM and an IC50 at 96 h [3] of 11 µM. For the same compound, the IC50 at 96 h [4] was 10.5 µM.

For CCN1CCN(CCC(=O)Nc2ccc3c(=O)c4ccc(NC(=O)CCN5CCN(CC)CC5)cc4[nH]c3c2)CC1 [BR-ACO-39], the IC50 [1] was 740 nM, the IC50 at 96 h [2] was > 25 µM and the IC50 at 96 h [3] was > 25 µM. For the same compound, the IC50 at 96 h [4] was > 25 µM.

Compound O=C(CCN1CCCC1)Nc1ccc2c(Nc3ccc(F)cc3)c3ccc(NC(=O)CCN4CCCC4)cc3nc2c1 [JC-ACI-3, N-{9-[4′-Fluorophenylamino]}-3,6-bis(3-pyrrolidinopropionamido)acridine] has an IC50 [1] of 70 nM and an IC50 at 96 h [5] of 2.5 µM.

Compound CSc1ccccc1Nc1c2ccc(NC(=O)CCN3CCCC3)cc2nc2cc(NC(=O)CCN3CCCC3)ccc12 [JC-ACI-4, N-{9-[2′-(Methylsulfanyl)phenylamino]}-3,6-bis(3-pyrrolidinopropionamido)acridine] has an IC50 [1] of 150 nM and an IC50 at 96 h [5] of 2.5 µM.

For CSc1cccc(Nc2c3ccc(NC(=O)CCN4CCCC4)cc3nc3cc(NC(=O)CCN4CCCC4)ccc23)c1 [JC-ACI-5, N-{9-[3′-Methylsulfanyl-phenylamino]}-3,6-bis(3-Pyrrolidinopropionamido)acridine], the IC50 [1] was 100 nM, the IC50 at 96 h [2] was 2.8 µM and the IC50 at 96 h [3] was 0.6 µM. The IC50 at 96 h [4] was 3.2 µM and the IC50 at 96 h [5] was 1.3 µM.

For O=C(CCN1CCCC1)Nc1ccc(Nc2c3ccc(NC(=O)CCN4CCCC4)cc3nc3cc(NC(=O)CCN4CCCC4)ccc23)cc1 [JC-ACI-9, N-{9-[4′-(3-Pyrrolidin-1-yl-propionylamino)-phenylamino]}-3,6-bis(3-pyrrolidinopropionamido)acridine], the IC50 [1] was 12 nM, the IC50 at 96 h [2] was > 25 µM and the IC50 at 96 h [3] was 20 µM. The IC50 at 96 h [4] was > 25 µM and the IC50 at 96 h [5] was 20 µM.

With CN(C)CCCNc1c2ccc(NC(=O)CCN3CCCC3)cc2nc2cc(NC(=O)CCN3CCCC3)ccc12 [JH-ACI-65, N-{9-[3-(N,N-Dimethyl)aminopropylamino]}-3,6-bis(3-pyrrolidinopropionamido)acridine] the IC50 [1] was 60 nM, the IC50 at 96 h [2] was > 25 µM and the IC50 at 96 h [3] was 17 µM. For the same compound, the IC50 at 96 h [4] was 15.8 µM and the IC50 at 96 h [5] was > 25 µM.

In the case of O=C(CCN1CCCC1)Nc1ccc2c(NCCN3CCCCC3)c3ccc(NC(=O)CCN4CCCC4)cc3nc2c1 [JH-ACI-69, N-[9-(2-Piperidin-1-yl-ethylamino)]-3,6-bis(3-pyrrolidinopropionamido)acridine], the IC50 [1] is reported as 50 nM, the IC50 at 96 h [2] is reported as 12.6 µM and the IC50 at 96 h [3] is reported as > 25 µM. The IC50 at 96 h [4] was > 25 µM and the IC50 at 96 h [5] was 11.2 µM.

With Nc1cccc(Nc2c3ccc(NC(=O)CCN4CCCC4)cc3nc3cc(NC(=O)CCN4CCCC4)ccc23)c1 [JH-ACI-74, N-{9-[3′-(Amino)phenylamino]}-3,6-bis(3-pyrrolidinopropionamido)acridine] the IC50 [1] was 60 nM, the IC50 at 96 h [2] was 12.6 µM and the IC50 at 96 h [3] was 15.8 µM. The IC50 at 96 h [4] was > 25 µM and the IC50 at 96 h [5] was 12.6 µM.

With Nc1ccccc1Nc1c2ccc(NC(=O)CCN3CCCC3)cc2nc2cc(NC(=O)CCN3CCCC3)ccc12 [JH-ACI-76, N-[9-(2′-(Amino)phenylamino)]-3,6-bis(3-pyrrolidinopropionamido)acridine] the IC50 [1] was 20 nM, the IC50 at 96 h [2] was 11 µM and the IC50 at 96 h [3] was 10 µM. It also gave an IC50 at 96 h [4] of 15.8 µM and an IC50 at 96 h [5] of 7.1 µM.

Compound CN(C)c1cccc(Nc2c3ccc(NC(=O)CCN4CCCC4)cc3nc3cc(NC(=O)CCN4CCCC4)ccc23)c1 [JH-ACI-78, N-{9-[3′-(N,N-Dimethylamino)phenylamino]}-3,6-bis(3-pyrrolidinopropionamido)acridine] has an IC50 [1] of 100 nM, an IC50 at 96 h [2] of 7.9 µM and an IC50 at 96 h [3] of 2 µM. The IC50 at 96 h [4] was 4 µM and the IC50 at 96 h [5] was 2 µM.

Work on O=C(CCN1CCCC1)Nc1ccc2c(NC3CCCCC3)c3ccc(NC(=O)CCN4CCCC4)cc3nc2c1 [JH-ACI-82, N-[9-(Cyclohexylamino)]-3,6-bis(3-pyrrolidinopropionamido)acridine] yielded an IC50 [1] of 90 nM, an IC50 at 96 h [2] of 12.5 µM and an IC50 at 96 h [3] of 2.8 µM. It also gave an IC50 at 96 h [4] of 1.1 µM and an IC50 at 96 h [5] of 2.5 µM.

With COCCNc1c2ccc(NC(=O)CCN3CCCC3)cc2nc2cc(NC(=O)CCN3CCCC3)ccc12 [JH-ACI-86, N-[9-(2-Methoxy-ethylamino)]-3,6-bis(3-pyrrolidinopropionamido)acridine] the IC50 [1] was 140 nM, the IC50 at 96 h [2] was 10 µM and the IC50 at 96 h [3] was 3.2 µM. It also gave an IC50 at 96 h [4] of 17.8 µM and an IC50 at 96 h [5] of 10 µM.

O=C(CCN1CCCC1)Nc1ccc2c(NC3CCCCCC3)c3ccc(NC(=O)CCN4CCCC4)cc3nc2c1 [JH-ACI-88, N-[9-(Cycloheptylamino)]-3,6-bis(3-pyrrolidinopropionamido)acridine] gave an IC50 [1] of 210 nM, an IC50 at 96 h [2] of 3.2 µM and an IC50 at 96 h [3] of 2.8 µM. The IC50 at 96 h [4] was 9.3 µM and the IC50 at 96 h [5] was 3.2 µM.
